Data reported in patent US10806798B2, “Compound with effects of thrombolysis, free radical scavenging and thrombus-targeting” (Shanghai Lumosa Therapeutics Co., Ltd., priority 2012, dated 2020).
Marks after values point to notes of the source that are not given here. Side chains are listed from the residue outwards. Ends that are not written are not given here.

Key:
[1] = test system: thrombus from rat arterial blood; assay: In vitro thrombolysis; set-up: species or system SD rats; conditions: 2 h at 37° C., n = 6
Experimental: SD rats (male, 350 to 400 g) were anaesthetized by intraperitoneal injection of a urethane solution at a dosage of 1200 mg/kg. The anaesthetized rats were fixed in a supine position, and the right common carotid artery was dissected, clamped at the proximal end with an arterial clip, and penetrated with a suture at the proximal and distal ends, respectively. The suture at the distal end is clipped tightly by a hemostatic clamp at the fur. Cannulation was performed at the distal end, the artery clamp was removed, and the total arterial blood was discharged into a 50 ml container previously treated with silicone oil. […] rat arterial blood was injected into a vertically fixed glass tube (20 mm in length, with an inner diameter of 4 mm and an outer diameter of 5 mm, sealed with a rubber stopper at the bottom), into which was immediately inserted a thrombus immobilization screw made of stainless steel. […] 40 min after the blood was coagulated, the rubber stopper at the bottom of the glass tube was removed, the stem of the thrombus immobilization screw was nipped by forceps, and the thrombus-wrapped thrombus immobilization screw was carefully taken out from the glass tube. The screw was then suspended and dipped in triple-distilled water to remove excessive blood, and accurately weighed after 1 h. The thrombus was suspended in 8 mL of normal saline, or a solution of compounds Ia-Il in normal saline (at a concentration of 100 nM), or a solution of ARPAK (SEQ. ID NO. 4), GRPAK (SEQ. ID NO. 5), RPAK (SEQ. ID NO. 3) or PAK in normal saline (at a concentration of 100 nM), or a solution of urokinase in normal saline (100 IU/mL), then shaked at 37° C. in a thermostatic shaker (63 r/min), and removed after 2 h and accurately weighed to determine the weight of the thrombus.

euglobulin clot = assay: Euglobulin clot lysis; type: biochemical, Pig; conditions: after 4 h, n = 3
Experimental: Pig blood was taken and mixed with 3.8% sodium citrate in a volume ratio of 9:1, immediately centrifuged at 3000 r/min for 10 min, and platelet-poor plasma was separated. 2 mL platelet-poor pig plasma and 36 mL ultrapure water were added into a 50 mL centrifuge tube. In each tube, 0.4 mL acetic acid (1%) was added and thoroughly mixed, and the tube was placed in a 4° C. refrigerator for 10 min and then centrifuged at 3000 r/min for 10 min. The centrifuge tubes were inverted, and then the inner wall of the tubes was dried using a filter paper after the liquid was drained. The euglobuin pellets resulting from centrifugation was freeze-dried for about 40 min and scratched out. About 35 mg euglobuin was taken and dissolved in 7 ml borax buffer (pH 9.28). The euglobuin were mostly dissolved after 1 h, into which 0.7 mL CaCl2 solution (25 mM) was added, and immediately plated on a 10×10 cm glass plate with a thickness of about 1 mm. After clot formation, 10 μL normal saline, or 10 μL of a solution of one of compounds Ia to Il in normal saline (1 mM) or 10 μL of a urokinase solution in normal saline (0.8 mg/mL) was pipetted and spotted onto the clot plate, with an interval between every two drops more than 1.5 cm, and each sample was spotted 3 times.

thrombus [2] = assay: In vivo thrombolysis, rat arteriovenous bypass thrombolysis model; set-up: species or system SD rats; conditions: after 1 h, n = 10
Experimental: SD rats (male, 220 to 230 g) were anaesthetized by intraperitoneal injection of a urethane solution at a dosage of 1200 mg/kg. The anaesthetized rats were fixed in a supine position, and the right common carotid artery was dissected, clamped at the proximal end with an arterial clip, and penetrated with a suture at the proximal and distal ends, respectively. The suture at the distal end is clipped tightly by a hemostatic clamp at the fur. Cannulation was performed at the distal end, the arterial clamp was removed, and about 1 ml arterial blood was discharged into a 1 ml eppendorf. 0.1 ml rat arterial blood was injected into a vertically fixed glass tube (15 mm in length, with an inner diameter of 2.5 mm and an outer diameter of 5.0 mm, sealed with a rubber stopper at the bottom), into which was immediately inserted a thrombus immobilization screw made of stainless steel. […] 15 min after the blood was coagulated, the rubber stopper at the bottom of the glass tube was removed, the stem of the thrombus immobilization screw was nipped by forceps, and the thrombus-wrapped thrombus immobilization screw was carefully taken out of the glass tube and then accurately weighed.
A bypass cannula was composed of 3 segments. The middle segment was a polyethylene tubing having a length of 60.0 mm and an inner diameter of 3.5 mm. The segments on both ends were similar polyethylene tubes having a length of 100.0 mm, an inner diameter of 1.0 mm and an outer diameter of 2.0 mm, one end of which was pulled to form a tip, with an outer diameter of 1.0 mm, that could be inserted into the rat carotid artery or vein, and the other end of which was sheathed by a polyethylene tube having a length of 7.0 mm and an outer diameter of 3.5 mm (thickened in order to be inserted into the polyethylene tubing of the middle segment). The inner wall of the 3-segment cannula was entirely silylated (with 1% silicone oil in ethyl ether). The thrombus-wrapped thrombus immobilization screw was placed into the polyethylene tubing of the middle segment, and both ends of the tubing sheathed the thickened ends of the two polyethylene tubes. The cannula was filled with a heparin solution in normal saline (50 IU/kg) through the tip end by using an injector and was ready for use. The trachea of the anaesthetized rat was then dissected and tracheal cannulation was performed. The left external carotid vein of the rat was dissected, and penetrated with a suture at the proximal and distal ends, respectively. An uneven open incision was careful made on the exposed left external carotid vein, and the tip of the bypass cannula prepared as described above was inserted into the proximal end of the open incision in the left external carotid vein, away from the stem of the thrombus immobilization screw in the middle segment of the bypass cannula (which accommodated the accurately weighed thrombus immobilization screw). A precise amount of heparin in saline (50 IU/kg) was injected through the tip at the other end by using an injector. At this moment, without removing the injector from the ethylene tube, the tubing between the injector and the polyethylene tube was clamped with forceps. The blood flow was stopped by clamping the proximal end of the right common carotid artery with an arterial clip, and an uneven open incision was cut carefully across the common carotid artery near the clip. The injector was pulled out of the tip of the polyethylene tube, and the tip of the polyethylene tube was then inserted into the proximal end of the artery open incision. Both ends of the bypass cannula were fixed to the artery or vein with #4 sutures. […]

thrombus [3] = assay: In vivo anti-thrombus experiment (arteriovenous cannula with thread); set-up: species or system SD rats; conditions: 0.1 μmol/kg by gavage; n = 11
Experimental: SD rats (male, 220 to 230 g) were randomly divided into groups with 11 rats in each group. The rats were fed at a resting state for 1 day and fasted overnight. […] After 30 min, the rats were anesthetized with a 20% urethane solution, and the right carotid artery and the left carotid vein were dissected. A cannula was filled with sodium heparin in normal saline, and one end thereof was inserted into the left vein, while the other end was injected with a certain amount of sodium heparin for anticoagulation with an injector and then inserted into the right artery. Blood flew from the right artery to the left vein through the polyethylene tubing, and the thread attached with thrombus was taken out after 15 min and the weight thereof was recorded. The wet thrombus weight was determined by subtracting the thread weight from the total weight.

rats with stroke = assay: Cerebral infarction volume after immediate treatment of stroke (TTC staining); type: in vivo, SD rats; conditions: n = 10
Experimental: After the rats were awake for 24 h and assessed for their degree of damage in neural function in Experimental example 6, they were anesthesized with urethane followed by immediate decapitation and removal of the brain. Brain tissues were kept in a −20° C. refrigerator for 2 h, and coronal sections of about 2 mm were successively sliced from the prefrontal end for a total of 6 sections, and then placed into a 2% TTC solution to incubate in darkness at 37° C. for 30 min. The color change in brain sections was observed: normal brain tissues were stained red by TTC, while ischemic brain tissues, i.e., brain tissues with infracts, appeared in a white color. Photographs were taken by using a digital camera and processed with SPSS statistics software, and the volume of infarction in brain tissues and the volume of normal brain tissues in the coronal sections were calculated.

Row | Substance | Weight reduction in thrombus (Mean ± SD mg) ([1]; 100 nM) [mg] | Diameter (Mean ± SD mm) of euglobulin clot lysis (euglobulin clot; 10 μL of 1 mM solution) [mm] | Weight reduction in thrombus (Mean ± SD mg) (thrombus [2]; 0.1 μmol/kg) [mg] | Wet weight of thrombus (Mean ± SD mg) (thrombus [3]) [mg] | Percentage of infarction volume (Mean ± SD %) (rats with stroke) [%] | Weight reduction in thrombus (Mean ± SD mg) ([1]; urokinase 100 IU/mL) | Diameter (Mean ± SD mm) of euglobulin clot lysis (euglobulin clot; 10 μL of urokinase 0.8 mg/mL) [mm] | Weight reduction in thrombus (Mean ± SD mg) (thrombus [2]; urokinase 20000 IU/kg) | Percentage of infarction volume (Mean ± SD %) (rats with stroke; urokinase 20000 IU/kg, immediate treatment)
1 | 1,3-dioxo-2-{4′-oxyacetyl-[N^ω-(Ala-Arg-Pro-Ala-Lys)-Lys-Arg-Gly-Asp-Phe]phenyl}-4,4,5,5-tetramethylimidazoline [Ic] | 27.33 ± 2.07 | 3.8 | 15.79 ± 3.07 | 20.50 ± 2.26 | 7.40 ± 1.65 | – | – | – | –
2 | 1,3-dioxo-2-{4′-oxyacetyl-[N^ω-(Ala-Arg-Pro-Ala-Lys)-Lys-Arg-Gly-Asp-Ser]phenyl}-4,4,5,5-tetramethylimidazoline [Ia] | 28.50 ± 2.59 | 4.0 | 15.39 ± 3.19 | 24.32 ± 2.10 | 7.21 ± 0.82 | – | – | – | –
3 | 1,3-dioxo-2-{4′-oxyacetyl-[N^ω-(Ala-Arg-Pro-Ala-Lys)-Lys-Arg-Gly-Asp-Val]phenyl}-4,4,5,5-tetramethylimidazoline [Ib] | 28.17 ± 2.31 | 5.2 | 14.35 ± 2.95 | 20.14 ± 2.45 | 7.13 ± 0.83 | – | – | – | –
4 | 1,3-dioxo-2-{4′-oxyacetyl-[N^ω-(Arg-Pro-Ala-Lys)-Lys-Arg-Gly-Asp-Phe]phenyl}-4,4,5,5-tetramethylimidazoline [Ii] | 24.83 ± 1.17 | 4.0 | 15.73 ± 2.95 | 17.79 ± 2.02 | 7.06 ± 1.08 | – | – | – | –
5 | 1,3-dioxo-2-{4′-oxyacetyl-[N^ω-(Arg-Pro-Ala-Lys)-Lys-Arg-Gly-Asp-Ser]phenyl}-4,4,5,5-tetramethylimidazoline [Ig] | 27.83 ± 2.56 | 5.2 | 16.35 ± 2.42 | 17.89 ± 2.05 | 6.40 ± 0.28 | – | – | – | –
6 | 1,3-dioxo-2-{4′-oxyacetyl-[N^ω-(Arg-Pro-Ala-Lys)-Lys-Arg-Gly-Asp-Val]phenyl}-4,4,5,5-tetramethylimidazoline [Ih] | 29.33 ± 3.01 | 4.2 | 15.37 ± 1.82 | 18.24 ± 1.89 | 7.35 ± 1.14 | – | – | – | –
7 | 1,3-dioxo-2-{4′-oxyacetyl-[N^ω-(Gly-Arg-Pro-Ala-Lys)-Lys-Arg-Gly-Asp-Phe]phenyl}-4,4,5,5-tetramethylimidazoline [If] | 15.29 ± 3.36 | 4.5 | 15.29 ± 3.36 | 17.99 ± 2.47 | 7.47 ± 1.31 | – | – | – | –
8 | 1,3-dioxo-2-{4′-oxyacetyl-[N^ω-(Gly-Arg-Pro-Ala-Lys)-Lys-Arg-Gly-Asp-Ser]phenyl}-4,4,5,5-tetramethylimidazoline | 14.17 ± 3.55 | 5.2 | 14.17 ± 3.55 | 19.46 ± 1.84 | 8.21 ± 1.91 | – | – | – | –
9 | 1,3-dioxo-2-{4′-oxyacetyl-[N^ω-(Pro-Ala-Lys)-Lys-Arg-Gly-Asp-Phe]phenyl}-4,4,5,5-tetramethylimidazoline (K([Lys-Ala-Pro])RGDF; not fully specified (N-terminus); also: 4′-oxyacetylphenyl-1,3-dioxo-4,4,5,5-tetramethylimidazoline (nitronyl nitroxide) conjugate, attachment amine not clear) [Il] | 25.83 ± 2.31 | 4.2 | 16.21 ± 2.84 | 19.32 ± 2.56 | 6.56 ± 0.41 | – | – | – | –
10 | 1,3-dioxo-2-{4′-oxyacetyl-[N^ω-(Pro-Ala-Lys)-Lys-Arg-Gly-Asp-Ser]phenyl}-4,4,5,5-tetramethylimidazoline (K([Lys-Ala-Pro])RGDS; not fully specified (N-terminus); also: 4′-oxyacetylphenyl-1,3-dioxo-4,4,5,5-tetramethylimidazoline (nitronyl nitroxide) conjugate, attachment amine not clear) [Ij] | 26.16 ± 3.15 | 4.0 | 14.89 ± 1.84 | 19.45 ± 1.79 | 6.84 ± 0.82 | – | – | – | –
11 | urokinase | – | – | – | – | – | 58.33 ± 4.08^a mg | 10.7 | 18.02 ± 2.32^a mg | 11.00 ± 2.42 ^b %
